Results from patent US11090391B2, “Protein nanocages with enhanced mucus penetration for targeted tissue and intracellular delivery” (The Johns Hopkins University, priority 2016, dated 2021).
“And” between values parts separate entries of the source, which are not always exact repeats. Equal entries are not always repeated.

What was measured:
3LL subcutaneous tumor = test: Tumor growth, 3LL subcutaneous tumor model, tail vein injection; type: in vivo; conditions: day 10, injections at days 0, 2, 4, 6, 8
Description: […] was injected at the tail vein to assay the effect on tumor growth in a 3LL subcutaneous tumor model at several time points (0, 2, 4, 6, and 8 days post tumor development). At day 10 post tumor development, the tumor volume was reduced in the animals treated with AF, as well as in the animals treated with […] treatment.

Hif-1α = Hif-1α expression, western blotting in 3LL cells; type: cell-based, mouse; conditions: 0.625 to 2.5 μM AF, dose- and time-dependent
Description: The inhibition was dose-dependent, i.e., increasing the amount of AF in the free AF or that in […] from 0.625 μM to 1.25 μM, further to 2.5 μM, decreased the level of Hif-1α expression. The inhibition was also time-dependent, i.e., the inhibition was more prominent after a 6 hour-incubation than a 24 h-incubation, and even more prominent than a 48 h-incubation. Hif-1α, a marker for tumor hypoxia, is an indicator of cancer progression, metastasis, and drug resistance in clinic.

A549-based spheroids = test: Penetration of DOX formulations in tumor spheroids; type: cell-based, human
Description: (§1) Multicellular tumor spheroid models consisting of different cancer cell lines were prepared by modifying a previously reported protocol (Friedrich J, et al, Nature Protocols, 4:309-324 (2009)). Briefly, 50 μL DMEM medium containing 1.5% agarose (wt/vol) was plated onto each well of a 96-well microtiter plate under sterile conditions. After the agarose solidifies, the plates were stored at room temperature until use. For the penetration study, 5×10^3 cells were seeded onto the agarose-plated 96-well plates. After 4-5 days culture to obtain multicellular tumor spheroids (400-500 μm in diameter), the tumor spheroids were carefully transferred into glass bottom dishes. […] After the 2-hour incubation, the cells were observed using confocal microscopy with Z-stack imaging at ˜10 μm intervals. […] The 3D images of spheroids were reconstructed by ZEN microscopy software (Carl Zeiss). For analyzing the penetration distance, the radial intensity distribution profile was determined using a custom-made MATLAB code where αtumor is the radius of individual spheroids and r is the radial distance from the spheroid center (r/αtumor=0 and 1 indicate the center and edge of the tumor spheroid, respectively). […] Quantification analysis of signal intensity was performed with ImageJ software (NIH).
(§2) Multicellular tumor spheroids were prepared and post-treatment analyzed as described in Example 4.

H1975-based spheroids = test: Penetration of DOX formulations in tumor spheroids; type: cell-based, human
Description: as §1, §2

H460-based spheroids = test: Penetration of DOX formulations in tumor spheroids; type: cell-based, human
Description: as §1, §2

[1] = test system: 3LL-Luc orthotopic proximal lung cancer; test: In vivo anti-cancer efficacy, orthotopic proximal lung cancer model; design: species or system mouse
Source text: To evaluate the efficacy of PEG-FTn-DOX for treating lung airway cancer, an aggressive orthotopic mouse model was established of proximal lung cancer in inbred mice with intact host immunity. The model was established via intratracheal intubation of cancer cells into the tracheal and bronchial epithelium of lung airways (DuPage M, et al., Nature protocols, 4:1064-1072 (2009)), which was relevant to small cell lung cancer and squamous-cell lung cancer. Briefly, female C57BL/6 mice (6-8 weeks) were inoculated with 2.5×10^4 3 LL-Luc cells in 50 μL of DMEM medium via intratracheal intubation using a 22 G×1″ Safelet catheter (Exel International). Three days after the inoculation, bioluminescence signal in the lung was observed using a Xenogen IVIS Spectrum optical imaging system. […] The tumor growth was monitored at various time points using an IVIS imaging system and the bioluminescence signal in lung at different time points was quantitatively analyzed by the Living Image® (Caliper Life Sciences) software. The survival of mice was recorded daily, and data was analyzed by Kaplan-Meier survival curve.
The luciferase activity of 3LL-Luc was visualized and quantified by a Xenogen IVIS Spectrum optical imaging system. In brief, mice were anesthetized with 2% isoflurane in O2 and received intraperitoneal injection of D-luciferin solution in PBS at a dose of 150 mg/kg. Serial images were acquired between 5 and 20 minutes after the D-luciferin administration, and the bioluminescence signal intensity was quantified by the Living Image® software.

[2] = In vitro pH-sensitive DOX release, dialysis; type: physicochemical
Description: At designated times up to 6 days, 150 μL of solution outside the dialysis bag was collected and the same amount of fresh PBS was added back. After 3 days of incubation, the buffer was adjusted to pH 5.0 to induce the release of DOX from PEG-FTn. The concentrations of released free DOX at varying time points were measured by HPLC.

[3] = test system: 3LL-based tumor spheroids; test: Penetration of DOX formulations in tumor spheroids; type: cell-based, mouse; conditions: 10 μM DOX concentration
Description: as §1, §2

3LL tumor spheroids = test: Growth delay of 3D cell spheroids; type: cell-based, mouse; conditions: 10 μM DOX, up to 11 days
Description: For cytotoxicity and growth delay experiments of 3D cell spheroids, 5×10^3 cells were seeded into the 96-well plates containing agarose. […] The diameters of tumor spheroids were recorded with a Zeiss Axiovert 200 phase-contrast microscope (Carl Zeiss) at the indicated time points.

3LL cells = test: Intracellular trafficking, confocal microscopy; type: cell-based, mouse
[4] = Physicochemical properties (hydrodynamic diameter, ζ-potential, drug loading)
Description: The DOX conjugated PEG-FTn is denoted as FTn/FTn-PEG2k/DOX. […] The mixture was incubated for 1 hour and 1.5 mg EDC was added to activate a carboxyl group of each DOX-linker conjugate. The resultant compounds were analyzed using high-performance liquid chromatography (HPLC, Varian Inc.) equipped with a C18 reverse phase column. […] The final product was extensively dialyzed (10 kDa MWCO; Thermo Scientific) and purified with a PD-10 column.

[5] = single intratracheal dose 0.25 mg/kg, 11 days after treatment

Substance	tumor volume (3LL subcutaneous tumor)	Hif-1α expression (Hif-1α)	penetration compared to free DOX (A549-based spheroids)	penetration compared to free DOX (H1975-based spheroids)	penetration compared to free DOX (H460-based spheroids)	progression-free survival ([1]; after 60 days)	decrease in bioluminescence signal intensity compared to free DOX-treated mice [1, 5]	decrease in bioluminescence signal intensity compared to untreated mice [1, 5]	maximum release of DOX ([2]; pH 5.0, after 4 hours)	DOX released ([2]; pH 7.4, over 3 days, 37° C.)	distribution in spheroids (3D confocal images) [3]	mean fluorescence signal intensity in the entire spheroid vs free DOX [3]	delay of spheroid growth compared to free DOX (3LL tumor spheroids)	DOX found in cytoplasm compared with nucleus (3LL cells; 30 min after addition)	DOX found in cytoplasm compared with nucleus (3LL cells; 2 h after addition)	colocalization with lysosomes (3LL cells; 2 hours after addition)	intracellular localization of DOX (3LL cells; 2 hours after addition)	DOX molecules per PEG-FTn [4]	Hydrodynamic diameter [4]	ζ-potential [4]
Acriflavine [AF]	reduced	inhibited Hif-1α expression																		
FTn/FTn-PEG2k/DOX: DOX conjugated to FTn/FTn-PEG2k via acid-sensitive cis-aconityl linker			Improved penetration	Improved penetration	Improved penetration	60%	17 fold	40 fold	~80%	negligible	uniformly distributed throughout the entire tumor spheroid	significantly greater	superior ability of delaying the growth	~95%	~55%	colocalized with lysosomes	observed in both the cytoplasm and nucleus	88±5 and 88 ± 22	15.3 ± 3.2 nm	−7.4 ± 2.8 mV
